From PubChem BioAssay (NCI)
Values joined by “and” are separate entries in the source; they are usually repeats but may differ in a detail not shown here. Equal values may be shown once.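 Cells were grown in 96-well plates and exposed to each compound for 48 hours at five concentrations; endpoints were interpolated linearly between bracketing concentrations, or set to the highest concentration if not reached. GI50 marks 50% less growth. TGI is the concentration that stops growth completely.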

What follows are compounds tested on SK-MEL-28 melanoma (assay: growth of human tumour cells (NCI), 48 h).

| SMILES | GI50 | TGI |
| --- | --- | --- |
| CC[C@]12C=CCN3CC[C@@]4(c5ccc(OC)cc5N(C)[C@H]4[C@@](O)(C(=O)OC)[C@@H]1OC(=O)CCC[P+](c1ccccc1)(c1ccccc1)c1ccccc1)[C@@H]32 | 0.274 µM and 0.442 µM | 1.06 µM and 1.67 µM |
| CC(=O)OC1Oc2ccccc2-c2oc(=O)c(-c3cc(=O)oc4cc(O)ccc34)cc21 (stereo not given) | 34.5 µM | > 100 µM |
| CC(C)(C)C(=O)OCOP(=O)(OCOC(=O)C(C)(C)C)C1CCCN(O)C1=O (stereo not given) | 0.321 µM | 1.14 µM |
| CC(SC(C)C(=O)N/N=C/c1cccc(Cl)c1)C(=O)N/N=C\c1cccc(Cl)c1 (stereo not given) | 15.2 µM | 34.4 µM |
| CCOC(=O)/C=C/C(C(=O)/C=C/c1ccc(OC2CCCCO2)c(OC)c1)=C(O)\C=C\c1ccc(OC2CCCCO2)c(OC)c1 (stereo not given) | 2.48 µM | 6.74 µM |
| Cc1ccc(Cl)cc1Nc1nc(C(F)(F)F)ccc1C(=O)N1CCN(c2ccc(F)cc2)CC1 | 15.6 µM | 29.3 µM |
| COC(=O)c1cc2c(cc1O)[C@@H](NC(C)=O)CCc1cc(OC)c(OC)c(OC)c1-2 | > 100 µM | > 100 µM |
| CC1OC2CC(=O)OC2C2=C1C(=O)c1c(O)cccc1C2=O (stereo not given) | 0.0548 µM | 0.191 µM |
| C=C(C)[C@@]12OC3(/C=C/C=C/CCCCC)O[C@@H]1[C@@H]1[C@@H]4O[C@]4(CO)[C@@H](O)[C@]4(O)C(=O)C(C)=C[C@H]4[C@@]1(O3)[C@H](C)[C@H]2OC(=O)c1ccccc1 | 1.18 µM | 2.42 µM |

The compounds below were run on HS 578T breast (assay: growth of human tumour cells (NCI), 48 h).

| SMILES | TGI | GI50 |
| --- | --- | --- |
| O=C(CCCn1ccnc1[N+](=O)[O-])NCCn1cncc1[N+](=O)[O-] | > 100 µM | – |
| Cn1cc(C2=C(c3ccc4ccccc4c3)C(=O)NC2=O)c2ccccc21 | > 25 µM | > 17.7 µM |
| O=C(OCc1ccc2cccc(O)c2n1)N1CCN(C(=O)c2cc3cc(F)ccc3[nH]2)CC1 | 5.72 µM | 1.42 µM |
| C[As](C)SC1OC(CO)C(O)C1O (stereo not given) | 7.59 µM | 0.968 µM |
| Cn1c(=O)c2c(nc(Nc3cc(=O)[nH]c(=O)[nH]3)n2Cc2ccccc2)n(C)c1=O | > 100 µM | > 100 µM |
| COc1ccc2c(c1)CCC1C2CC[C@@]2(C)C1CC1=CC(COC(C)=O)C3C(=O)c4ccccc4C(=O)C3C12 (stereo not given in full) | > 100 µM | 89 µM |
| C=C(F)C(=O)N1CCN(c2nc(OC[C@@H]3CCCN3C)nc3c2CCN(c2cccc4cccc(Cl)c24)C3)C[C@@H]1CC#N | 4.4 µM | 1.76 µM |
| Cc1c2cccnc2c(C)c2c1c1cc(CO)ccc1n2C | 34.5 µM | 3.38 µM |
| CC/C(=C(/c1ccc(OCCN(C)C)cc1)c1ccc(OC(=O)CCCCC(=O)c2c(C)[nH]c(/C=C3\N=C(c4ccc[nH]4)C=C3OC)c2C)cc1)c1ccccc1 | 47.6 µM | 4.98 µM |
| CC[C@]12C=CCN3CC[C@@]4(c5ccc(OC)cc5N(C)[C@H]4[C@@](O)(C(=O)OC)[C@@H]1OC(=O)CCC[P+](c1ccccc1)(c1ccccc1)c1ccccc1)[C@@H]32 | 6.71 µM and 5.07 µM | 1.21 µM and 1.15 µM |
| CC(=O)OC1Oc2ccccc2-c2oc(=O)c(-c3cc(=O)oc4cc(O)ccc34)cc21 (stereo not given) | 52 µM | 17.9 µM |
| CC(C)(C)C(=O)OCOP(=O)(OCOC(=O)C(C)(C)C)C1CCCN(O)C1=O (stereo not given) | 8.27 µM | 0.314 µM |
| CC(SC(C)C(=O)N/N=C/c1cccc(Cl)c1)C(=O)N/N=C\c1cccc(Cl)c1 (stereo not given) | 25.4 µM | 5.62 µM |
| CCOC(=O)/C=C/C(C(=O)/C=C/c1ccc(OC2CCCCO2)c(OC)c1)=C(O)\C=C\c1ccc(OC2CCCCO2)c(OC)c1 (stereo not given) | 80.5 µM | 12.3 µM |
| Cc1ccc(Cl)cc1Nc1nc(C(F)(F)F)ccc1C(=O)N1CCN(c2ccc(F)cc2)CC1 | 22.3 µM | 4.31 µM |
| COC(=O)c1cc2c(cc1O)[C@@H](NC(C)=O)CCc1cc(OC)c(OC)c(OC)c1-2 | 0.0481 µM | – |
| CC1OC2CC(=O)OC2C2=C1C(=O)c1c(O)cccc1C2=O (stereo not given) | – | 0.261 µM |
| C=C(C)[C@@]12OC3(/C=C/C=C/CCCCC)O[C@@H]1[C@@H]1[C@@H]4O[C@]4(CO)[C@@H](O)[C@]4(O)C(=O)C(C)=C[C@H]4[C@@]1(O3)[C@H](C)[C@H]2OC(=O)c1ccccc1 | 2.21 µM | < 0.01 µM |

These compounds were tested on LOX IMVI melanoma (assay: growth of human tumour cells (NCI), 48 h).

| SMILES | TGI | GI50 |
| --- | --- | --- |
| O=C(CCCn1ccnc1[N+](=O)[O-])NCCn1cncc1[N+](=O)[O-] | > 100 µM | – |
| Cn1cc(C2=C(c3ccc4ccccc4c3)C(=O)NC2=O)c2ccccc21 | > 25 µM | > 25 µM |
| O=C(OCc1ccc2cccc(O)c2n1)N1CCN(C(=O)c2cc3cc(F)ccc3[nH]2)CC1 | 2.75 µM | 1.36 µM |
| C[As](C)SC1OC(CO)C(O)C1O (stereo not given) | 1.75 µM | 0.445 µM |
| Cn1c(=O)c2c(nc(Nc3cc(=O)[nH]c(=O)[nH]3)n2Cc2ccccc2)n(C)c1=O | > 100 µM | > 100 µM |
| COc1ccc2c(c1)CCC1C2CC[C@@]2(C)C1CC1=CC(COC(C)=O)C3C(=O)c4ccccc4C(=O)C3C12 (stereo not given in full) | > 100 µM | > 100 µM |
| C=C(F)C(=O)N1CCN(c2nc(OC[C@@H]3CCCN3C)nc3c2CCN(c2cccc4cccc(Cl)c24)C3)C[C@@H]1CC#N | 2.47 µM | 1.13 µM |
| Cc1c2cccnc2c(C)c2c1c1cc(CO)ccc1n2C | 4.82 µM | 1.5 µM |
| CC/C(=C(/c1ccc(OCCN(C)C)cc1)c1ccc(OC(=O)CCCCC(=O)c2c(C)[nH]c(/C=C3\N=C(c4ccc[nH]4)C=C3OC)c2C)cc1)c1ccccc1 | 5.14 µM | 2.05 µM |
| CC[C@]12C=CCN3CC[C@@]4(c5ccc(OC)cc5N(C)[C@H]4[C@@](O)(C(=O)OC)[C@@H]1OC(=O)CCC[P+](c1ccccc1)(c1ccccc1)c1ccccc1)[C@@H]32 | 6 µM and 2.18 µM | 0.923 µM and 0.662 µM |
| CC(=O)OC1Oc2ccccc2-c2oc(=O)c(-c3cc(=O)oc4cc(O)ccc34)cc21 (stereo not given) | 37.5 µM | 17.8 µM |
| CC(C)(C)C(=O)OCOP(=O)(OCOC(=O)C(C)(C)C)C1CCCN(O)C1=O (stereo not given) | 12.3 µM | 0.465 µM |
| CC(SC(C)C(=O)N/N=C/c1cccc(Cl)c1)C(=O)N/N=C\c1cccc(Cl)c1 (stereo not given) | 10.5 µM | 3.03 µM |
| CCOC(=O)/C=C/C(C(=O)/C=C/c1ccc(OC2CCCCO2)c(OC)c1)=C(O)\C=C\c1ccc(OC2CCCCO2)c(OC)c1 (stereo not given) | 3.32 µM | 1.63 µM |
| Cc1ccc(Cl)cc1Nc1nc(C(F)(F)F)ccc1C(=O)N1CCN(c2ccc(F)cc2)CC1 | 24.6 µM | 11.9 µM |
| COC(=O)c1cc2c(cc1O)[C@@H](NC(C)=O)CCc1cc(OC)c(OC)c(OC)c1-2 | > 100 µM | – |
| CC1OC2CC(=O)OC2C2=C1C(=O)c1c(O)cccc1C2=O (stereo not given) | 0.129 µM | 0.0342 µM |
| C=C(C)[C@@]12OC3(/C=C/C=C/CCCCC)O[C@@H]1[C@@H]1[C@@H]4O[C@]4(CO)[C@@H](O)[C@]4(O)C(=O)C(C)=C[C@H]4[C@@]1(O3)[C@H](C)[C@H]2OC(=O)c1ccccc1 | 2.29 µM | 1.1 µM |
